Measurements reported in ChEMBL document CHEMBL1130698, “Design and synthesis of new potent, silent 5-HT1A antagonists by covalent coupling of aminopropanol derivatives with selective serotonin reuptake inhibitors” (Bioorg Med Chem Lett, 1998).

Columns and labels:
[1] = biological target: T1, 5-hydroxytryptamine receptor 1A (Homo sapiens, UniProt P08908); experiment: Displacement of [3H]8-OH-DPAT from human 5-HT1A receptor
T1 sequence (P08908 whole entry): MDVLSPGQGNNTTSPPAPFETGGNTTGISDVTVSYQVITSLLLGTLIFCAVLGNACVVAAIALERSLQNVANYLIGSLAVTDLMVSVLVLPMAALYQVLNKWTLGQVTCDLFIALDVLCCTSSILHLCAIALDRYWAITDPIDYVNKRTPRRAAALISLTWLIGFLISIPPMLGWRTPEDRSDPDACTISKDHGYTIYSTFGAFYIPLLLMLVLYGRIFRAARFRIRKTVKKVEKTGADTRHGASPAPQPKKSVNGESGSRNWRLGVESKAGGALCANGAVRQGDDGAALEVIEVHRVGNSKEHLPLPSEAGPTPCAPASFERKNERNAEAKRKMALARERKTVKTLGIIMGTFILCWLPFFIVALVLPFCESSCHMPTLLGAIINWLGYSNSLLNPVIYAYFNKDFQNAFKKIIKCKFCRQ

[2] = biological target: T2, 5-hydroxytryptamine receptor 1A (Homo sapiens) (UniProt P08908); experiment: Antagonistic potency as binding affinity of 5-HT stimulated [35S]GTP gamma S to human 5-HT1A receptor; format: functional
T2 sequence (whole entry): T1 sequence (P08908 whole entry)

SMILES: O[C@H](CNCC[C@H](Oc1ccc(C(F)(F)F)cc1)c1ccccc1)COc1cccc2[nH]ccc12
- Ki [1]: 0.0603 µM
- Kb [2]: 0.0014 µM

SMILES: OC(CNCCC(Oc1ccc(C(F)(F)F)cc1)c1ccccc1)COc1cccc2[nH]ccc12 (centres undefined)
- Ki [1]: 0.0187 µM
- Kb [2]: 0.0022 µM

SMILES: OC(CNCCCCCCN1CC[C@H](c2ccc(F)cc2)[C@@H](COc2ccc3c(c2)OCO3)C1)COc1cccc2[nH]ccc12 (some centres undefined)
- Ki [1]: 0.0067 µM
- Kb [2]: 0.0043 µM

SMILES: O[C@@H](CNCC[C@H](Oc1ccc(C(F)(F)F)cc1)c1ccccc1)COc1cccc2ccccc12
- Ki [1]: 0.0329 µM
- Kb [2]: 0.0379 µM

SMILES: O[C@@H](CNCC[C@H](Oc1ccc(C(F)(F)F)cc1)c1ccccc1)COc1cccc2[nH]ccc12
- Ki [1]: 0.0078 µM
- Kb [2]: 0.0002 µM

SMILES: OC(CNCCCCCCN1CC[C@H](c2ccc(F)cc2)[C@@H](COc2ccc3c(c2)OCO3)C1)COc1cccc2ccccc12 (some centres undefined)
- Ki [1]: 0.156 µM
- Kb [2]: 0.188 µM

SMILES: OC(CNCCCCCCNCCC(Oc1ccc(C(F)(F)F)cc1)c1ccccc1)COc1cccc2ccccc12 (centres undefined)
- Ki [1]: 0.391 µM
- Kb [2]: 1.73 µM

SMILES: CCN(CC)C(=O)[C@@]1(c2ccccc2)C[C@H]1CNCC(O)COc1cccc2[nH]ccc12 (some centres undefined)
- Ki [1]: 0.0454 µM
- Kb [2]: 0.0148 µM

SMILES: O[C@@H](COc1cccc2[nH]ccc12)CN1CC[C@@H](c2ccc(F)cc2)[C@H](COc2ccc3c(c2)OCO3)C1
- Ki [1]: 0.0157 µM
- Kb [2]: 0.0075 µM

SMILES: O[C@H](COc1cccc2[nH]ccc12)CN1CC[C@@H](c2ccc(F)cc2)[C@H](COc2ccc3c(c2)OCO3)C1
- Ki [1]: 0.0059 µM
- Kb [2]: 0.0007 µM

SMILES: OC(CNCCC(Oc1ccc(C(F)(F)F)cc1)c1ccccc1)COc1ccccc1C1CCCC1 (centres undefined)
- Ki [1]: 0.0364 µM
- Kb [2]: 0.0152 µM

SMILES: O[C@H](CNCC[C@H](Oc1ccc(C(F)(F)F)cc1)c1ccccc1)COc1cccc2ccccc12
- Ki [1]: 0.142 µM
- Kb [2]: 0.388 µM
